Data: the supplement of paper PMC10307832

Assays:
Assay in all cases: relative viability (nuclei count vs DMSO), 5 days (fraction); higher = more cells survive
Elesclomol = compound: CN(NC(=O)CC(=O)NN(C)C(=S)c1ccccc1)C(=S)c1ccccc1 [Elesclomol]
Summary of the method: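 Acceptance criteria were a control CV below 25% and at least one doubling per plate. Lung cancer cell lines in 1536-well plates got five library-drug doses (not always all listed) √10 apart by pinning and were left 5 days with no medium change. Viability divides treated-well nuclei by vehicle-well nuclei and is the median across plates. Nuclei were counted by MetaXpress from 4× Hoechst images.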

Elesclomol + Luminespib = compound: CN(NC(=O)CC(=O)NN(C)C(=S)c1ccccc1)C(=S)c1ccccc1 [Elesclomol] + CCNC(=O)c1noc(-c2cc(C(C)C)c(O)cc2O)c1-c1ccc(CN2CCOCC2)cc1 [Luminespib] (partner 0.01 µM)
Summary of the method: (§1)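 Lung cancer cell lines in 1536-well plates got either a single drug or a fixed anchor-drug dose together with five library-drug doses (not always all listed) in √10 steps, by pin tool, on the day after seeding. Nuclei were counted after 5 days, and relative viability is the treated-to-vehicle ratio of nuclei counts. Values are medians of duplicate plates.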

Elesclomol + Foretinib = compound: CN(NC(=O)CC(=O)NN(C)C(=S)c1ccccc1)C(=S)c1ccccc1 [Elesclomol] + COc1cc2c(Oc3ccc(NC(=O)C4(C(=O)Nc5ccc(F)cc5)CC4)cc3F)ccnc2cc1OCCCN1CCOCC1 [Foretinib] (partner 0.25 µM)
Summary of the method: as §1

Elesclomol + OSI-027 = compound: CN(NC(=O)CC(=O)NN(C)C(=S)c1ccccc1)C(=S)c1ccccc1 [Elesclomol] + COc1cccc2cc(-c3nc([C@H]4CC[C@H](C(=O)O)CC4)n4ncnc(N)c34)[nH]c12 [OSI-027] (partner 0.5 µM)
Summary of the method: as §1

Elesclomol + Tozasertib = compound: CN(NC(=O)CC(=O)NN(C)C(=S)c1ccccc1)C(=S)c1ccccc1 [Elesclomol] + Cc1cc(Nc2cc(N3CCN(C)CC3)nc(Sc3ccc(NC(=O)C4CC4)cc3)n2)n[nH]1 [Tozasertib] (partner 0.1 µM)
Summary of the method: as §1

Elesclomol + Dasatinib = compound: CN(NC(=O)CC(=O)NN(C)C(=S)c1ccccc1)C(=S)c1ccccc1 [Elesclomol] + Cc1nc(Nc2ncc(C(=O)Nc3c(C)cccc3Cl)s2)cc(N2CCN(CCO)CC2)n1 [Dasatinib] (partner 0.075 µM)
Summary of the method: as §1

Elesclomol + Phenformin = compound: CN(NC(=O)CC(=O)NN(C)C(=S)c1ccccc1)C(=S)c1ccccc1 [Elesclomol] + N=C(N)NC(=N)NCCc1ccccc1 [Phenformin] (partner 250 µM)
Summary of the method: as §1

Elesclomol + Trametinib = compound: CN(NC(=O)CC(=O)NN(C)C(=S)c1ccccc1)C(=S)c1ccccc1 [Elesclomol] + CC(=O)Nc1cccc(-n2c(=O)n(C3CC3)c(=O)c3c(Nc4ccc(I)cc4F)n(C)c(=O)c(C)c32)c1 [Trametinib] (partner 0.02 µM)
Summary of the method: as §1

Elesclomol + Palbociclib = compound: CN(NC(=O)CC(=O)NN(C)C(=S)c1ccccc1)C(=S)c1ccccc1 [Elesclomol] + CC(=O)c1c(C)c2cnc(Nc3ccc(N4CCNCC4)cn3)nc2n(C2CCCC2)c1=O [Palbociclib] (partner 0.5 µM)
Summary of the method: as §1

Elesclomol + AZD7762 = compound: CN(NC(=O)CC(=O)NN(C)C(=S)c1ccccc1)C(=S)c1ccccc1 [Elesclomol] + NC(=O)Nc1cc(-c2cccc(F)c2)sc1C(=O)N[C@H]1CCCNC1 [AZD7762] (partner 0.2 µM)
Summary of the method: as §1

Elesclomol + Pemetrexed = compound: CN(NC(=O)CC(=O)NN(C)C(=S)c1ccccc1)C(=S)c1ccccc1 [Elesclomol] + Nc1nc2[nH]cc(CCc3ccc(C(=O)N[C@@H](CCC(=O)O)C(=O)O)cc3)c2c(=O)[nH]1 [Pemetrexed] (partner 0.2 µM)
Summary of the method: as §1

Elesclomol + Decitabine = compound: CN(NC(=O)CC(=O)NN(C)C(=S)c1ccccc1)C(=S)c1ccccc1 [Elesclomol] + Nc1ncn([C@H]2C[C@H](O)[C@@H](CO)O2)c(=O)n1 [Decitabine] (partner 2 µM)
Summary of the method: as §1

Elesclomol + Vorinostat = compound: CN(NC(=O)CC(=O)NN(C)C(=S)c1ccccc1)C(=S)c1ccccc1 [Elesclomol] + O=C(CCCCCCC(=O)Nc1ccccc1)NO [Vorinostat] (partner 1 µM)
Summary of the method: as §1

Elesclomol + Olaparib = compound: CN(NC(=O)CC(=O)NN(C)C(=S)c1ccccc1)C(=S)c1ccccc1 [Elesclomol] + O=C(c1cc(Cc2n[nH]c(=O)c3ccccc23)ccc1F)N1CCN(C(=O)C2CC2)CC1 [Olaparib] (partner 8 µM)
Summary of the method: as §1

Cell Line: NCI-H1623
- relative viability (Elesclomol; 0.003162 µM): 0.775
- relative viability (Elesclomol; 0.01 µM): 0.462
- relative viability (Elesclomol; 0.03162 µM): 0.37
- relative viability (Elesclomol; 0.1 µM): 0.339
- relative viability (Elesclomol + Luminespib; first compound 0.003162 µM): 0.235
- relative viability (Elesclomol + Luminespib; first compound 0.01 µM): 0.216
- relative viability (Elesclomol + Luminespib; first compound 0.03162 µM): 0.251
- relative viability (Elesclomol + Luminespib; first compound 0.1 µM): 0.217
- relative viability (Elesclomol + Foretinib; first compound 0.003162 µM): 0.868
- relative viability (Elesclomol + Foretinib; first compound 0.01 µM): 0.526
- relative viability (Elesclomol + Foretinib; first compound 0.03162 µM): 0.422
- relative viability (Elesclomol + Foretinib; first compound 0.1 µM): 0.422
- relative viability (Elesclomol + OSI-027; first compound 0.003162 µM): 0.386
- relative viability (Elesclomol + OSI-027; first compound 0.01 µM): 0.353
- relative viability (Elesclomol + OSI-027; first compound 0.03162 µM): 0.347
- relative viability (Elesclomol + OSI-027; first compound 0.1 µM): 0.296
- relative viability (Elesclomol + Tozasertib; first compound 0.003162 µM): 0.392
- relative viability (Elesclomol + Tozasertib; first compound 0.01 µM): 0.417
- relative viability (Elesclomol + Tozasertib; first compound 0.03162 µM): 0.35
- relative viability (Elesclomol + Tozasertib; first compound 0.1 µM): 0.303
- relative viability (Elesclomol + Dasatinib; first compound 0.003162 µM): 0.499
- relative viability (Elesclomol + Dasatinib; first compound 0.01 µM): 0.464
- relative viability (Elesclomol + Dasatinib; first compound 0.03162 µM): 0.312
- relative viability (Elesclomol + Dasatinib; first compound 0.1 µM): 0.254
- relative viability (Elesclomol + Phenformin; first compound 0.003162 µM): 0.624
- relative viability (Elesclomol + Phenformin; first compound 0.01 µM): 0.552
- relative viability (Elesclomol + Phenformin; first compound 0.03162 µM): 0.539
- relative viability (Elesclomol + Phenformin; first compound 0.1 µM): 0.443

Cell Line: NCI-H1648
- relative viability (Elesclomol; 0.003162 µM): 0.606
- relative viability (Elesclomol; 0.01 µM): 0.725
- relative viability (Elesclomol; 0.03162 µM): 0.827
- relative viability (Elesclomol; 0.1 µM): 0.76
- relative viability (Elesclomol + Trametinib; first compound 0.003162 µM): 0.555
- relative viability (Elesclomol + Trametinib; first compound 0.01 µM): 0.415
- relative viability (Elesclomol + Trametinib; first compound 0.03162 µM): 0.46
- relative viability (Elesclomol + Trametinib; first compound 0.1 µM): 0.39
- relative viability (Elesclomol + Palbociclib; first compound 0.003162 µM): 0.301
- relative viability (Elesclomol + Palbociclib; first compound 0.01 µM): 0.285
- relative viability (Elesclomol + Palbociclib; first compound 0.03162 µM): 0.266
- relative viability (Elesclomol + Palbociclib; first compound 0.1 µM): 0.253
- relative viability (Elesclomol + OSI-027; first compound 0.003162 µM): 0.263
- relative viability (Elesclomol + OSI-027; first compound 0.01 µM): 0.276
- relative viability (Elesclomol + OSI-027; first compound 0.03162 µM): 0.224
- relative viability (Elesclomol + OSI-027; first compound 0.1 µM): 0.295
- relative viability (Elesclomol + Tozasertib; first compound 0.003162 µM): 0.379
- relative viability (Elesclomol + Tozasertib; first compound 0.01 µM): 0.409
- relative viability (Elesclomol + Tozasertib; first compound 0.03162 µM): 0.506
- relative viability (Elesclomol + Tozasertib; first compound 0.1 µM): 0.54
- relative viability (Elesclomol + AZD7762; first compound 0.003162 µM): 0.581
- relative viability (Elesclomol + AZD7762; first compound 0.01 µM): 0.686
- relative viability (Elesclomol + AZD7762; first compound 0.03162 µM): 0.61
- relative viability (Elesclomol + AZD7762; first compound 0.1 µM): 0.622
- relative viability (Elesclomol + Pemetrexed; first compound 0.003162 µM): 0.7
- relative viability (Elesclomol + Pemetrexed; first compound 0.01 µM): 0.599
- relative viability (Elesclomol + Pemetrexed; first compound 0.03162 µM): 0.752
- relative viability (Elesclomol + Pemetrexed; first compound 0.1 µM): 0.673
- relative viability (Elesclomol + Decitabine; first compound 0.003162 µM): 0.551
- relative viability (Elesclomol + Decitabine; first compound 0.01 µM): 0.469
- relative viability (Elesclomol + Decitabine; first compound 0.03162 µM): 0.509
- relative viability (Elesclomol + Decitabine; first compound 0.1 µM): 0.453
- relative viability (Elesclomol + Vorinostat; first compound 0.003162 µM): 0.338
- relative viability (Elesclomol + Vorinostat; first compound 0.01 µM): 0.416
- relative viability (Elesclomol + Vorinostat; first compound 0.03162 µM): 0.385
- relative viability (Elesclomol + Vorinostat; first compound 0.1 µM): 0.313
- relative viability (Elesclomol + Olaparib; first compound 0.003162 µM): 0.675
- relative viability (Elesclomol + Olaparib; first compound 0.01 µM): 0.753
- relative viability (Elesclomol + Olaparib; first compound 0.03162 µM): 0.835
- relative viability (Elesclomol + Olaparib; first compound 0.1 µM): 0.796

Cell Line: NCI-H2342
- relative viability (Elesclomol; 0.003162 µM): 0.865
- relative viability (Elesclomol; 0.01 µM): 1.02
- relative viability (Elesclomol; 0.03162 µM): 0.571
- relative viability (Elesclomol; 0.1 µM): 0.612
- relative viability (Elesclomol + Trametinib; first compound 0.003162 µM): 0.877
- relative viability (Elesclomol + Trametinib; first compound 0.01 µM): 0.839
- relative viability (Elesclomol + Trametinib; first compound 0.03162 µM): 0.756
- relative viability (Elesclomol + Trametinib; first compound 0.1 µM): 0.616
- relative viability (Elesclomol + Palbociclib; first compound 0.003162 µM): 0.495
- relative viability (Elesclomol + Palbociclib; first compound 0.01 µM): 0.489
- relative viability (Elesclomol + Palbociclib; first compound 0.03162 µM): 0.517
- relative viability (Elesclomol + Palbociclib; first compound 0.1 µM): 0.411
- relative viability (Elesclomol + Luminespib; first compound 0.003162 µM): 0.665
- relative viability (Elesclomol + Luminespib; first compound 0.01 µM): 0.551
- relative viability (Elesclomol + Luminespib; first compound 0.03162 µM): 0.391
- relative viability (Elesclomol + Luminespib; first compound 0.1 µM): 0.322
- relative viability (Elesclomol + Foretinib; first compound 0.003162 µM): 1.08
- relative viability (Elesclomol + Foretinib; first compound 0.01 µM): 0.915
- relative viability (Elesclomol + Foretinib; first compound 0.03162 µM): 0.437
- relative viability (Elesclomol + Foretinib; first compound 0.1 µM): 0.344
- relative viability (Elesclomol + OSI-027; first compound 0.003162 µM): 0.648
- relative viability (Elesclomol + OSI-027; first compound 0.01 µM): 0.583
- relative viability (Elesclomol + OSI-027; first compound 0.03162 µM): 0.395
- relative viability (Elesclomol + OSI-027; first compound 0.1 µM): 0.301
- relative viability (Elesclomol + Tozasertib; first compound 0.003162 µM): 0.466
- relative viability (Elesclomol + Tozasertib; first compound 0.01 µM): 0.476
- relative viability (Elesclomol + Tozasertib; first compound 0.03162 µM): 0.332
- relative viability (Elesclomol + Tozasertib; first compound 0.1 µM): 0.324
- relative viability (Elesclomol + Dasatinib; first compound 0.003162 µM): 0.318
- relative viability (Elesclomol + Dasatinib; first compound 0.01 µM): 0.305
- relative viability (Elesclomol + Dasatinib; first compound 0.03162 µM): 0.247
- relative viability (Elesclomol + Dasatinib; first compound 0.1 µM): 0.267
- relative viability (Elesclomol + Phenformin; first compound 0.003162 µM): 0.482
- relative viability (Elesclomol + Phenformin; first compound 0.01 µM): 0.596
- relative viability (Elesclomol + Phenformin; first compound 0.03162 µM): 0.355
- relative viability (Elesclomol + Phenformin; first compound 0.1 µM): 0.292
- relative viability (Elesclomol + AZD7762; first compound 0.003162 µM): 0.385
- relative viability (Elesclomol + AZD7762; first compound 0.01 µM): 0.461
- relative viability (Elesclomol + AZD7762; first compound 0.03162 µM): 0.4
- relative viability (Elesclomol + AZD7762; first compound 0.1 µM): 0.441
- relative viability (Elesclomol + Pemetrexed; first compound 0.003162 µM): 0.732
- relative viability (Elesclomol + Pemetrexed; first compound 0.01 µM): 0.634
- relative viability (Elesclomol + Pemetrexed; first compound 0.03162 µM): 0.728
- relative viability (Elesclomol + Pemetrexed; first compound 0.1 µM): 0.705
- relative viability (Elesclomol + Decitabine; first compound 0.003162 µM): 0.697
- relative viability (Elesclomol + Decitabine; first compound 0.01 µM): 0.866
- relative viability (Elesclomol + Decitabine; first compound 0.03162 µM): 0.784
- relative viability (Elesclomol + Decitabine; first compound 0.1 µM): 0.602
- relative viability (Elesclomol + Vorinostat; first compound 0.003162 µM): 0.732
- relative viability (Elesclomol + Vorinostat; first compound 0.01 µM): 0.8
- relative viability (Elesclomol + Vorinostat; first compound 0.03162 µM): 0.757
- relative viability (Elesclomol + Vorinostat; first compound 0.1 µM): 0.771
- relative viability (Elesclomol + Olaparib; first compound 0.003162 µM): 0.476
- relative viability (Elesclomol + Olaparib; first compound 0.01 µM): 0.37
- relative viability (Elesclomol + Olaparib; first compound 0.03162 µM): 0.434
- relative viability (Elesclomol + Olaparib; first compound 0.1 µM): 0.367
